Data on ten compounds can be found in patent US11845744B2, “Methods and compositions for modulating splicing” (Skyhawk Therapeutics, Inc., priority 2019, dated 2023).

Molecules are shown by their SMILES.

The term Papp A→B denotes how fast a substance crosses the layer from the apical side. The Papp B→A is the apparent permeability from the basolateral to the apical side of a cell layer. For orientation: efflux ratio means the permeability from basolateral to apical divided by that in the opposite direction, in the common usage. Usually EC50 stands for the concentration needed to bring the measured effect to its halfway point.

One data set has as its system MDR1. Put plainly: MDCK-MDR1 permeability assay for blood-brain-barrier penetration potential (Papp, efflux ratio). The class given is in vitro ADME. To be noted: dog; for Papp A→B at 120 min, 5 μM: MDCK-MDR1, apical to basolateral; for Papp A→B at 120 min, 5 μM / Papp B→A at 120 min, 5 μM: pH 7.4; for Papp B→A at 120 min, 5 μM: MDCK-MDR1, basolateral to apical; for efflux ratio at 120 min, 5 μM: MDCK-MDR1, pH 7.4, Efflux ratio = Papp (B-to-A)/Papp (A-to-B). How it is done: (§1) The dosing solution concentration was 5 μM of test article in the assay buffer. […] Each determination was performed in duplicate. […] All samples were assayed by LC-MS/MS using electrospray ionization. Analytical conditions are outlined below.
(§2) The apparent permeability (Papp) and percent recovery were calculated as follows: […]

Data set [1] concerns MDR1-MDCK cell monolayers. Described as above. Format: in vitro ADME. To be noted: 5 μM; for MDCK-MDR1: % Recov A-B: apical to basolateral; for MDCK-MDR1: % Recov A-B / MDCK-MDR1: % Recov B-A: 120 minutes, pH 7.4; for MDCK-MDR1: % Recov B-A: basolateral to apical. How it is done:
as §1, §2

The test system of the next data set is SMN protein. Put plainly: SMN protein assay (Mesoscale Discovery) in SMA patient fibroblasts (GM03813). The class given is cell-based, human. The note with it: 48 hours, MSD assay, read-out: SMN EC50 (SMN Protein Potency). How it is done:
Compounds were tested on spinal muscular atrophy (SMA) patient fibroblasts (GM03813, Coriell) at doses ranging from 2.5 μM to 0.6 nM. 7000 cells/well were seeded in 96-well plates. Compounds were incubated for 48 hours and the cells were lysed with 100 μL of lysis buffer. 20 μL of lysate was used for SMN protein measurement by Mesoscale Discovery (MSD) assay developed by PharmOptima (Michigan). A standard curve prepared with SMN protein ranging from 1 μg/ml to 19.5 pg/ml was used in each MSD plate to calculate the absolute SMN protein amount in each sample.

The next data set has as its system SMN. Put plainly: Quantitative splicing assay (SMN) in SMA patient fibroblasts (GM03813), qPCR of SMN FL and SMN Δ7. The class given is cell-based. The note with it: Homo sapiens, Fibroblast, 24 h, SMN FL mRNA by qPCR. The procedure: Spinal muscular atrophy (SMA) patient fibroblasts (GM03813, Coriell) were plated in 96-well plates at 50,000 cells/well. Immediately after plating, cells were dosed with compounds for 24 h at concentrations ranging from 2.5 μM to 0.6 nM (0.1% DMSO). Treated cells were lysed and cDNA synthesized using the Fast Advanced Cells-to-Ct kit (ThermoFisher A35378) according to the manufacturer's instructions. 2 μL of each cDNA were used in qPCR reactions. The qPCR reactions were prepared in 384-well plates in 10 μL volume, using TaqMan™ Fast Advanced Master Mix (ThermoFisher; 4444965) with primers and probes shown in the table below. Reactions were run in a Quant Studio 6 qPCR instrument with default settings.
A general note: Real-time PCR tracks product formation cycle by cycle.

For `CN(c1cnc(-c2ccc(-c3ccn(C)c(=O)c3)cc2O)nn1)[C@H]1C[C@@H]2CC[C@@H](N2)[C@H]1F` (single isomer, unassigned) [Compound 1B], in the data set on MDR1, the apparent permeability from apical to basolateral (Papp A→B) at 120 min, 5 μM came to 0.3 ×10⁻⁶ cm/s; the Papp B→A at 120 min, 5 μM stood at 46.4 ×10⁻⁶ cm/s; the efflux ratio at 120 min, 5 μM came out at 152. In addition, in data set [1], the “MDCK-MDR1: % Recov A-B” value was determined as 95% and the “MDCK-MDR1: % Recov B-A” value is reported as 84%. Further, in the data set with SMN protein, the EC50 was in the range of 500 to 10000 nM.
`CN(C)C(=O)c1cc2cc(O)c(-c3ncc(N(C)[C@@H]4C[C@H]5CC[C@H](N5)[C@@H]4F)nn3)cc2o1` (single isomer, unassigned) [Compound 4A]: in data set [1], the “MDCK-MDR1: % Recov A-B” value was 89% and the “MDCK-MDR1: % Recov B-A” value was found to be 96%. The “MDCK-MDR1: Efflux” value in data set [1] (Efflux ratio = Papp (B-to-A)/Papp (A-to-B)) was 26.
In the case of `CN(c1cnc(-c2ccc(-c3cn[nH]c3)cc2O)nn1)[C@H]1C[C@@H]2CC[C@@H](N2)[C@H]1F` (single isomer, unassigned) [Compound 2B], in the data set on MDR1, the apparent permeability from apical to basolateral (Papp A→B) at 120 min, 5 μM came to 2.26 ×10⁻⁶ cm/s; the Papp B→A at 120 min, 5 μM came out at 53.4 ×10⁻⁶ cm/s; the efflux ratio at 120 min, 5 μM came out at 24. Also, in data set [1], the “MDCK-MDR1: % Recov A-B” value came to 93% and the “MDCK-MDR1: % Recov B-A” value was 96%. The same compound yielded an EC50 in the data set on SMN of 0.01 to 15 nM. For the same compound, the EC50 in the data set with SMN protein was 0.01 to 15 nM.
Turning to `CN(C)C(=O)c1cc2cc(O)c(-c3ncc(N(C)[C@H]4C[C@@H]5CC[C@@H](N5)[C@H]4F)nn3)cc2o1` (single isomer, unassigned) [Compound 4B], in the data set with MDR1, the apical-to-basolateral permeability (Papp A→B) at 120 min, 5 μM is 3.05 ×10⁻⁶ cm/s; the Papp B→A at 120 min, 5 μM was determined as 50 ×10⁻⁶ cm/s; the efflux ratio at 120 min, 5 μM stood at 16. Besides, in data set [1], the “MDCK-MDR1: % Recov A-B” value is reported as 91% and the “MDCK-MDR1: % Recov B-A” value stood at 101%.
Take `CN(c1cnc(-c2ccc(-c3cn[nH]c3)cc2O)nn1)[C@@H]1C[C@H]2CC[C@H](N2)[C@@H]1F` (single isomer, unassigned) [Compound 2A]: in the data set with MDR1, the Papp A→B at 120 min, 5 μM stood at 2.05 ×10⁻⁶ cm/s; the apparent permeability from basolateral to apical (Papp B→A) at 120 min, 5 μM was determined as 39.8 ×10⁻⁶ cm/s; the efflux ratio at 120 min, 5 μM was 19. In data set [1], the “MDCK-MDR1: % Recov A-B” value is 78% and the “MDCK-MDR1: % Recov B-A” value amounted to 74%. In addition, the EC50 in the data set on SMN protein was 500 to 10000 nM.
For the compound `CN(c1cnc(-c2ccc(-c3cnn(C)c3)cc2O)nn1)[C@@H]1C[C@H]2CC[C@H](N2)[C@@H]1F` (single isomer, unassigned) [Compound 3A], in the data set on MDR1, the apical-to-basolateral permeability (Papp A→B) at 120 min, 5 μM stood at 5.37 ×10⁻⁶ cm/s; the Papp B→A at 120 min, 5 μM worked out at 37.3 ×10⁻⁶ cm/s; the efflux ratio at 120 min, 5 μM worked out at 7. In addition, in data set [1], the “MDCK-MDR1: % Recov A-B” value stood at 67% and the “MDCK-MDR1: % Recov B-A” value was determined as 72%. In the data set with SMN, this compound had a half-maximal effective concentration (EC50) of 0.01 to 15 nM. Also, the EC50 in the data set on SMN protein lay within 15 to 50 nM.
As for `Cn1cc(-c2ccc(-c3ncc(O[C@@H]4C[C@H]5CCC[C@H](N5)[C@@H]4F)nn3)c(O)c2)cn1` (single isomer, unassigned) [Compound 5A], in the data set with MDR1, the Papp A→B at 120 min, 5 μM was determined as 9 ×10⁻⁶ cm/s; the Papp B→A at 120 min, 5 μM was 30.9 ×10⁻⁶ cm/s; the efflux ratio at 120 min, 5 μM was 3. Further, in data set [1], the “MDCK-MDR1: % Recov A-B” value was 69% and the “MDCK-MDR1: % Recov B-A” value is reported as 79%. Besides, the EC50 with SMN protein was in the range of 500 to 10000 nM.
With `CN(c1cnc(-c2ccc(-c3cnn(C)c3)cc2O)nn1)[C@H]1C[C@@H]2CC[C@@H](N2)[C@H]1F` (single isomer, unassigned) [Compound 3B], in the data set with MDR1, the apparent permeability from apical to basolateral (Papp A→B) at 120 min, 5 μM was 4.3 ×10⁻⁶ cm/s; the apparent permeability from basolateral to apical (Papp B→A) at 120 min, 5 μM was found to be 37.8 ×10⁻⁶ cm/s; the efflux ratio at 120 min, 5 μM worked out at 9. For the same compound, in data set [1], the “MDCK-MDR1: % Recov A-B” value is reported as 62% and the “MDCK-MDR1: % Recov B-A” value amounted to 76%. Moreover, the EC50 in the data set with SMN lay within 0.01 to 15 nM. Besides, in the data set with SMN protein, the EC50 lay in the range of 0.01 to 15 nM.
On to `CN(c1cnc(-c2ccc(-c3ccn(C)c(=O)c3)cc2O)nn1)[C@@H]1C[C@H]2CC[C@H](N2)[C@@H]1F` (single isomer, unassigned) [Compound 1A], for which, in the data set on MDR1, the apparent permeability from apical to basolateral (Papp A→B) at 120 min, 5 μM was 0.12 ×10⁻⁶ cm/s; the Papp B→A at 120 min, 5 μM was 37.8 ×10⁻⁶ cm/s; the efflux ratio at 120 min, 5 μM is 309. Also, in data set [1], the “MDCK-MDR1: % Recov A-B” value amounted to 81% and the “MDCK-MDR1: % Recov B-A” value is given as 94%. Besides, the concentration for a half-maximal effect (EC50) with SMN protein was in the range of 500 to 10000 nM.
In the case of `Cn1cc(-c2ccc(-c3ncc(O[C@H]4C[C@@H]5CCC[C@@H](N5)[C@H]4F)nn3)c(O)c2)cn1` (single isomer, unassigned) [Compound 5B], in the data set with MDR1, the apparent permeability from apical to basolateral (Papp A→B) at 120 min, 5 μM was determined as 10.2 ×10⁻⁶ cm/s; the Papp B→A at 120 min, 5 μM is 43.7 ×10⁻⁶ cm/s; the efflux ratio at 120 min, 5 μM was determined as 4. Besides, in data set [1], the “MDCK-MDR1: % Recov A-B” value was found to be 83% and the “MDCK-MDR1: % Recov B-A” value was 90%. Further, the concentration giving a half-maximal response (EC50) in the data set with SMN protein lay in the range of 100 to 500 nM.
